Assays:
[1] = system: galium (catchweed bedstraw, Galium aparine); experiment: Test A postemergence, galium; type: in vivo; details: Galium, post-emergence, 240 h, 0 to 100 scale (0 no effect, 100 complete control), read-out: Plant response rating, Galium
[2] = system: pigweed (Amaranthus retroflexus); experiment: Test A postemergence, pigweed; type: in vivo; details: Amaranthus retroflexus, post-emergence, 240 h, 0 to 100 scale (0 no effect, 100 complete control), read-out: Plant response rating, Pigweed
[3] = system: ragweed (common ragweed, Ambrosia elatior); experiment: Test A preemergence, ragweed; type: in vivo; details: Ambrosia artemisiifolia, pre-emergence, 240 h, 0 to 100 scale (0 no effect, 100 complete control), read-out: Plant response rating, Ragweed
[4] = system: ryegrass, Italian (Italian ryegrass, Lolium multiflorum); experiment: Test A preemergence, ryegrass, Italian; type: in vivo; details: Lolium multiflorum, pre-emergence, 240 h, 0 to 100 scale (0 no effect, 100 complete control), read-out: Plant response rating, Ryegrass, Italian
[5] = system: wheat (Triticum aestivum); experiment: Test A postemergence, wheat; type: in vivo; details: Triticum aestivum, post-emergence, 240 h, 0 to 100 scale (0 no effect, 100 complete control), read-out: Plant response rating, Wheat
[6] = system: blackgrass (Alopecurus myosuroides); experiment: Test A postemergence, blackgrass; type: in vivo; details: Alopecurus myosuroides, post-emergence, 240 h, 0 to 100 scale (0 no effect, 100 complete control), read-out: Plant response rating, Blackgrass
kochia (Kochia scoparia) [7] = experiment: Test A postemergence, kochia; type: in vivo; details: Bassia scoparia, post-emergence, 240 h, 0 to 100 scale (0 no effect, 100 complete control), read-out: Plant response rating, Kochia
[8] = system: barnyardgrass (Echinochloa crus-galli); experiment: Test A postemergence, barnyardgrass; type: in vivo; details: Echinochloa crus-galli, post-emergence, 240 h, 0 to 100 scale (0 no effect, 100 complete control), read-out: Plant response rating, Barnyardgrass
kochia (Kochia scoparia) [9] = experiment: Test A preemergence, kochia; type: in vivo; details: Bassia scoparia, pre-emergence, 240 h, 0 to 100 scale (0 no effect, 100 complete control), read-out: Plant response rating, Kochia
[10] = system: ragweed (common ragweed, Ambrosia elatior); experiment: Test A postemergence, ragweed; type: in vivo; details: Ambrosia artemisiifolia, post-emergence, 240 h, 0 to 100 scale (0 no effect, 100 complete control), read-out: Plant response rating, Ragweed
[11] = system: ryegrass, Italian (Italian ryegrass, Lolium multiflorum); experiment: Test A postemergence, ryegrass, Italian; type: in vivo; details: Lolium multiflorum, post-emergence, 240 h, 0 to 100 scale (0 no effect, 100 complete control), read-out: Plant response rating, Ryegrass, Italian
[12] = system: ducksalad (Heteranthera limosa); experiment: Test B flooded paddy test, ducksalad; details: Heteranthera limosa, read-out: Plant response rating, Ducksalad (0 to 100 scale, 0 is no effect, 100 is complete control)
corn (Zea mays) = experiment: Test A postemergence, corn; type: in vivo; details: Zea mays, post-emergence, 240 h, 0 to 100 scale (0 no effect, 100 complete control)
[13] = system: barnyardgrass (Echinochloa crus-galli); experiment: Test A preemergence, barnyardgrass; type: in vivo; details: Echinochloa crus-galli, pre-emergence, 240 h, 0 to 100 scale (0 no effect, 100 complete control), read-out: Plant response rating, Barnyardgrass
rice (Oryza sativa) = experiment: Test B flooded paddy test, rice; details: Oryza sativa, read-out: Plant response rating, Rice (0 to 100 scale, 0 is no effect, 100 is complete control)
[14] = system: barnyardgrass (Echinochloa crus-galli); experiment: Test B flooded paddy test, barnyardgrass; details: Echinochloa crus-galli, read-out: Plant response rating, Barnyardgrass (0 to 100 scale, 0 is no effect, 100 is complete control)
[15] = system: pigweed (Amaranthus retroflexus); experiment: Test A preemergence, pigweed; type: in vivo; details: Amaranthus retroflexus, pre-emergence, 240 h, 0 to 100 scale (0 no effect, 100 complete control), read-out: Plant response rating, Pigweed

OC1CC(CCCC(F)(F)F)c2c(Oc3ncc(Cl)cn3)cccc21 (stereo not shown) [Compound 10, 4-[(5-Chloro-2-pyrimidinyl)oxy]-2,3-dihydro-3-(4,4,4-trifluorobutyl)-1H-inden-1-ol]
pest or weed control at 31 g/ha ([1]; 31 g ai/ha): 10% | pest or weed control at 125 g/ha ([1]; 125 g ai/ha): 20% | pest or weed control at 31 g/ha ([2]; 31 g ai/ha): 50% | pest or weed control at 125 g/ha ([2]; 125 g ai/ha): 90% | pest or weed control at 31 g/ha ([3]; 31 g ai/ha): 0% | pest or weed control at 125 g/ha ([3]; 125 g ai/ha): 0% | pest or weed control at 31 g/ha ([4]; 31 g ai/ha): 10% | pest or weed control at 125 g/ha ([4]; 125 g ai/ha): 30% | plant injury at 31 g/ha ([5]; 31 g ai/ha): 0% | plant injury at 125 g/ha ([5]; 125 g ai/ha): 10% | pest or weed control at 31 g/ha ([6]; 31 g ai/ha): 10% | pest or weed control at 125 g/ha ([6]; 125 g ai/ha): 20% | pest or weed control at 31 g/ha (kochia (Kochia scoparia) [7]; 31 g ai/ha): 10% | pest or weed control at 125 g/ha (kochia (Kochia scoparia) [7]; 125 g ai/ha): 60% | pest or weed control at 31 g/ha ([8]; 31 g ai/ha): 10% | pest or weed control at 125 g/ha ([8]; 125 g ai/ha): 40% | pest or weed control at 31 g/ha (kochia (Kochia scoparia) [9]; 31 g ai/ha): 0% | pest or weed control at 125 g/ha (kochia (Kochia scoparia) [9]; 125 g ai/ha): 30% | pest or weed control at 31 g/ha ([10]; 31 g ai/ha): 0% | pest or weed control at 125 g/ha ([10]; 125 g ai/ha): 10% | pest or weed control at 31 g/ha ([11]; 31 g ai/ha): 0% | pest or weed control at 125 g/ha ([11]; 125 g ai/ha): 30% | pest or weed control at 250 g/ha [12]: 95% | Corn plant response rating (crop injury, 0 = no effect, 100 = complete kill) at 31 g/ha (corn (Zea mays); 31 g ai/ha): 10% | Corn plant response rating (crop injury, 0 = no effect, 100 = complete kill) at 125 g/ha (corn (Zea mays); 125 g ai/ha): 30% | pest or weed control at 31 g/ha ([13]; 31 g ai/ha): 10% | pest or weed control at 125 g/ha ([13]; 125 g ai/ha): 70% | plant injury at 250 g/ha (rice (Oryza sativa)): 25% | pest or weed control at 250 g/ha [14]: 45% | pest or weed control at 31 g/ha ([15]; 31 g ai/ha): 100% | pest or weed control at 125 g/ha ([15]; 125 g ai/ha): 100%

From US11427549B2, “Pyrimidinyloxy benzo-fused compounds as herbicides” (FMC Corporation, priority 2017, dated 2022)
